Source: paper PMC10046946, “Novel Phthalic-Based Anticancer Tyrosine Kinase Inhibitors: Design, Synthesis and Biological Activity” (Current Issues in Molecular Biology, 2023)

Tests used:
[1] = target: T1, PDGFRα (Homo sapiens, UniProt P16234); experiment: ADP-Glo kinase assay, PDGFRα; type: biochemical
T1 construct: purchased Promega
Description: (§1) The ADP-Glo kinase assay (Promega, Madison, WI, USA) was used to screen compounds 5, 8–10, 14, 17, 19 and 24 for the tyrosine kinase (Kinase Selectivity Profiling System TK-1, Promega, Madison, WI, USA) and serine/threonine kinase (Kinase Selectivity Profiling System Other/CK-1, Promega, Madison, WI, USA) inhibition effects according to the manufacturer’s technical manual. The luminescence data were analyzed as described in our prior work.
(§2) The selectivity of the potential kinase inhibitor against a specific protein kinase or a specific family of kinases was investigated using the Kinase Selectivity Profiling System TK-1, Other/CK-1 and ADP-Glo™ Kinase assay kit (Promega, Madison, WI, USA).

[2] = target: T2, Aurora B (Homo sapiens, UniProt Q96GD4); experiment: ADP-Glo kinase assay, Aurora B; type: biochemical
T2 construct: purchased Promega
Description: as §1, §2

[3] = target: T3, EGFR (Homo sapiens, UniProt P00533); experiment: ADP-Glo kinase assay, EGFR; type: biochemical
T3 construct: purchased Promega

[4] = target: T4, HER4 (Homo sapiens, UniProt Q15303); experiment: ADP-Glo kinase assay, HER4; type: biochemical
T4 construct: purchased Promega
Description: as §1, §2

[5] = target: T5, KDR (VEGFR-2) (Homo sapiens, UniProt P35968); experiment: ADP-Glo kinase assay, KDR; type: biochemical
T5 construct: purchased Promega

[6] = tested on: MCF-7 (breast adenocarcinoma); experiment: MTT cell proliferation assay, MCF-7; type: cell-based; settings: Homo sapiens, MCF7, MCF-7, 72 h of exposition, read-out: Anti-proliferative activity IC50, MCF-7
Description: (§3) Tests to determine the effects of the synthesized compounds on cell viability and the half-maximal inhibitory concentration (IC50) were performed using the MTT assay, as described in our prior work.
(§4) The target compounds 5, 6, 8–12, 14, 15, 17–22 and 24–26 were tested for antiproliferative activity against six cancer cell lines: K562 (chronic myelogenous leukemia), HL-60 (promyelocytic leukemia), MCF-7 (breast adenocarcinoma), HepG2 (human liver cancer), A549 (lung carcinoma) and OKP-GS (renal cell carcinoma). The RPMI 1788 cells (B lymphocyte, human) were used as a control to evaluate the system toxicity of the studied compounds to normal cells. Sorafenib, nilotinib and lapatinib were utilized as reference standards for comparison.

[7] = target: T6, PDGFRβ (Homo sapiens, UniProt P09619); experiment: ADP-Glo kinase assay, PDGFRβ; type: biochemical
T6 construct: purchased Promega
Description: as §1, §2

[8] = target: T7, HER2 (Homo sapiens, UniProt P04626); experiment: ADP-Glo kinase assay, HER2; type: biochemical
T7 construct: purchased Promega
Description: as §1, §2

[9] = tested on: K562 (chronic myelogenous leukemia); experiment: MTT cell proliferation assay, K562; type: cell-based; settings: Homo sapiens, K562, 72 h of exposition, read-out: Anti-proliferative activity IC50, K562
Description: as §3, §4

[10] = target: T8, InsR (insulin receptor) (Homo sapiens, UniProt P06213); experiment: ADP-Glo kinase assay, InsR; type: biochemical
T8 construct: purchased Promega
Description: as §1, §2

[11] = tested on: HepG2 (human liver cancer); experiment: MTT cell proliferation assay, HepG2; type: cell-based; settings: Homo sapiens, HepG2, 72 h, HepG2, 72 h of exposition, read-out: Anti-proliferative activity IC50, HepG2
Description: as §3, §4

[12] = target: T9, Aurora A (Homo sapiens, UniProt O14965); experiment: ADP-Glo kinase assay, Aurora A; type: biochemical
T9 construct: purchased Promega
T9 sequence (O14965 1-403): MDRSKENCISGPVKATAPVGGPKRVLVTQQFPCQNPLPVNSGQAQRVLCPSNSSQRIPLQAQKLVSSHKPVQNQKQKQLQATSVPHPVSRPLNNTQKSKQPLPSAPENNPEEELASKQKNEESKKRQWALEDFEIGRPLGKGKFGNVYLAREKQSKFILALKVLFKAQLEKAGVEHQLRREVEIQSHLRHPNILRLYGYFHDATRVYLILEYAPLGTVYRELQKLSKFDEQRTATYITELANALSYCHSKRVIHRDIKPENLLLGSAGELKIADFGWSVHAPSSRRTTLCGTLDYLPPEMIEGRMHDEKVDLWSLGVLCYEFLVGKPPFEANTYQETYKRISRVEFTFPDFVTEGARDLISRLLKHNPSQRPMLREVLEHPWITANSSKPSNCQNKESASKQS
Description: as §1, §2

[13] = tested on: A549 (lung carcinoma); experiment: MTT cell proliferation assay, A549; type: cell-based; settings: Homo sapiens, A549, 72 h of exposition, read-out: Anti-proliferative activity IC50, A549
Description: as §3, §4

[14] = tested on: OKP-GS (renal cell carcinoma); experiment: MTT cell proliferation assay, OKP-GS; type: cell-based; settings: 72 h of exposition, read-out: Anti-proliferative activity IC50, OKP-GS
Description: as §3, §4

[15] = tested on: RPMI 1788 cells (B lymphocyte, human); experiment: MTT cell proliferation assay, normal RPMI 1788 cells; type: cell-based; settings: normal human lymphoblastoid cells RPMI 1788, 72 h of exposition, read-out: Anti-proliferative activity IC50, RPMI 1788
Description: as §3, §4

[16] = target: T10, IGF1R (insulin-like growth factor 1 receptor) (Homo sapiens, UniProt P08069); experiment: ADP-Glo kinase assay, IGF1R; type: biochemical
T10 construct: purchased Promega
Description: as §1, §2

[17] = tested on: HL-60 (promyelocytic leukemia); experiment: MTT cell proliferation assay, HL-60; type: cell-based; settings: Homo sapiens, HL-60, 72 h of exposition, read-out: Anti-proliferative activity IC50, HL-60
Description: as §3, §4

T6 sequence (P09619 33-1106): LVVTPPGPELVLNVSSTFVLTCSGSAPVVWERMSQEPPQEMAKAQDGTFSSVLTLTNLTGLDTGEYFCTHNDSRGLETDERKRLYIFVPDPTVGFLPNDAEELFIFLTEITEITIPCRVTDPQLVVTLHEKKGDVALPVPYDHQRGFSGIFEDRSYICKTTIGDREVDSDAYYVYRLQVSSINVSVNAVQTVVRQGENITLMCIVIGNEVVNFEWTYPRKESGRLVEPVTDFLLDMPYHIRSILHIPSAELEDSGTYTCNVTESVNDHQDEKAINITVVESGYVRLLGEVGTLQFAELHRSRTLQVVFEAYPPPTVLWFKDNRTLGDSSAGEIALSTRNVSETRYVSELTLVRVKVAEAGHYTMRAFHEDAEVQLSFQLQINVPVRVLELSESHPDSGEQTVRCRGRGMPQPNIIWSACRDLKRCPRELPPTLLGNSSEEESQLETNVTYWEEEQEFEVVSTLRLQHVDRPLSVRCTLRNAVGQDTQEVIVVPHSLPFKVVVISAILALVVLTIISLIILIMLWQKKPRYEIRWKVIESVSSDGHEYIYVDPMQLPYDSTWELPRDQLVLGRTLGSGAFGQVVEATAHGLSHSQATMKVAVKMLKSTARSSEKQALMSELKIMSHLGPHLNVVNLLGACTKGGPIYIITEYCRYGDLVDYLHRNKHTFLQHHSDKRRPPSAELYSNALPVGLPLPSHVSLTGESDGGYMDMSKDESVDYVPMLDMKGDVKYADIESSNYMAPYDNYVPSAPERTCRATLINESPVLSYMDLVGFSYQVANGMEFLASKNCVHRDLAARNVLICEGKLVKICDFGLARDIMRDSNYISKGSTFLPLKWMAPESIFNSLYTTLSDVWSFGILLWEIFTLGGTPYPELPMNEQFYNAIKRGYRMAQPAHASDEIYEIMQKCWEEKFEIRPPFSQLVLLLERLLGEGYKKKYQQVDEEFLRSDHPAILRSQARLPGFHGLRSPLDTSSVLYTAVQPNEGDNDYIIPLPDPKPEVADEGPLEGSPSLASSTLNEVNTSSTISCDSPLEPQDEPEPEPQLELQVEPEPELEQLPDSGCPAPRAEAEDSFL
T8 sequence (P06213 28-1382): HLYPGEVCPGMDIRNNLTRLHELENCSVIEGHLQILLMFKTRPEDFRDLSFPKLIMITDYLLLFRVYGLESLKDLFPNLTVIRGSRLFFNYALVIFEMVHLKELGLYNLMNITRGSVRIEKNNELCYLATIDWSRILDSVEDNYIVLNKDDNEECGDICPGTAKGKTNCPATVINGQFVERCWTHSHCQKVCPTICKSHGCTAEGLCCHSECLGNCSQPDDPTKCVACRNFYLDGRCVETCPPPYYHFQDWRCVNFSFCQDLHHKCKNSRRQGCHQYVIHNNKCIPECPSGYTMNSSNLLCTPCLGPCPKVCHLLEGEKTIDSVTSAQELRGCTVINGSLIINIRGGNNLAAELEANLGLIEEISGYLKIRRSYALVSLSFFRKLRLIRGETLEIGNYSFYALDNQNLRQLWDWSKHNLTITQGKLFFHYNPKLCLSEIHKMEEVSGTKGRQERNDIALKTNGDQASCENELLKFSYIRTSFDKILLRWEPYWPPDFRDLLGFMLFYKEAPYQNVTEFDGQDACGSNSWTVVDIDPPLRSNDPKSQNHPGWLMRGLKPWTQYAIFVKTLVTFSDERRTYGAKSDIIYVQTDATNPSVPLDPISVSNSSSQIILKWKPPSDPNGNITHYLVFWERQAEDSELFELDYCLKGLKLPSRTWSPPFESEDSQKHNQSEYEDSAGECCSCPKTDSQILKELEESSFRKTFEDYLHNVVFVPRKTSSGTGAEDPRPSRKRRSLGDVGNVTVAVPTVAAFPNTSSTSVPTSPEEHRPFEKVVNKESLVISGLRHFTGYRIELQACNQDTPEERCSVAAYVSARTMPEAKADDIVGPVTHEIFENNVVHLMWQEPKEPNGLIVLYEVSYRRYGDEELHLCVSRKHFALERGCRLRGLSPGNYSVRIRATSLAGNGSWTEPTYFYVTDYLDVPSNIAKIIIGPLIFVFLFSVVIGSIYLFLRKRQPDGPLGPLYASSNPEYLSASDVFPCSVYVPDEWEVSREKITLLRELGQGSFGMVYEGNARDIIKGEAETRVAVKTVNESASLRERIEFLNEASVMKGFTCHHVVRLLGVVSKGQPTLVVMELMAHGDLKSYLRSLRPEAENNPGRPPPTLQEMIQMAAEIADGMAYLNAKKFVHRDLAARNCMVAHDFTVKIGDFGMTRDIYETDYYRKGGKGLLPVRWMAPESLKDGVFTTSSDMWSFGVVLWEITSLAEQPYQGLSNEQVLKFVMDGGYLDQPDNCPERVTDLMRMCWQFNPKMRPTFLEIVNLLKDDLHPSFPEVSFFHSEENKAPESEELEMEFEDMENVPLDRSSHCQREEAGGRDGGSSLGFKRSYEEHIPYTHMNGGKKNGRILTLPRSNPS
T3 sequence (P00533 25-1210): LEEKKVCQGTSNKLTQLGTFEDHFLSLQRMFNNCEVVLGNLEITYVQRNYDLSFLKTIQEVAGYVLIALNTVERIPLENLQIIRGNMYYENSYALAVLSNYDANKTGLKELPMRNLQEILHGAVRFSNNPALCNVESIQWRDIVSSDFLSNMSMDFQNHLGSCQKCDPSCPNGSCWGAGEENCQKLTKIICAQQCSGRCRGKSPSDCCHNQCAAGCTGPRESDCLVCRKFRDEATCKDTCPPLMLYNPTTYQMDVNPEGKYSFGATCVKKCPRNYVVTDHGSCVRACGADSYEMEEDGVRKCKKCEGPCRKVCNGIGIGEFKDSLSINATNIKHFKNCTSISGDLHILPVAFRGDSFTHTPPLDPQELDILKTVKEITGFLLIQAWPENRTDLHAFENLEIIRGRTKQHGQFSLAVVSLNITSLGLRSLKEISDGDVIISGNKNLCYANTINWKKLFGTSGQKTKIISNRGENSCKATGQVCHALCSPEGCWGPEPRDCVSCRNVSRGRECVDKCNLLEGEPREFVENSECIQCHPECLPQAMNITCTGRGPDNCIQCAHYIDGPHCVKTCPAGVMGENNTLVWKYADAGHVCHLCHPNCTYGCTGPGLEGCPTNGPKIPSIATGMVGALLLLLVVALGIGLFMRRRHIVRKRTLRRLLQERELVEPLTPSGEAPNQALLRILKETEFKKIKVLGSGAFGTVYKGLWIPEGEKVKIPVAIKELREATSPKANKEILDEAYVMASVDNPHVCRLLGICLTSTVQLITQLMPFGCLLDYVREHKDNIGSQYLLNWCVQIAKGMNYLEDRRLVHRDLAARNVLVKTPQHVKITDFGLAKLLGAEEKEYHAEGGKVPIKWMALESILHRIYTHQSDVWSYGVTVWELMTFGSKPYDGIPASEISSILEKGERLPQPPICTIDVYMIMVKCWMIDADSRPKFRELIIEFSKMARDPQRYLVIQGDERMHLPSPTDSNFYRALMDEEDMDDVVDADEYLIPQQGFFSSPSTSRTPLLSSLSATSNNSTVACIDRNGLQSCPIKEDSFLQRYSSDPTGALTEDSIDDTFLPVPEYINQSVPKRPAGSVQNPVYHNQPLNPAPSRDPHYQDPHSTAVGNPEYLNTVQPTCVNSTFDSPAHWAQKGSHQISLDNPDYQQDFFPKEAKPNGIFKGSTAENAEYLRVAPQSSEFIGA
T7 sequence (P04626 23-1255): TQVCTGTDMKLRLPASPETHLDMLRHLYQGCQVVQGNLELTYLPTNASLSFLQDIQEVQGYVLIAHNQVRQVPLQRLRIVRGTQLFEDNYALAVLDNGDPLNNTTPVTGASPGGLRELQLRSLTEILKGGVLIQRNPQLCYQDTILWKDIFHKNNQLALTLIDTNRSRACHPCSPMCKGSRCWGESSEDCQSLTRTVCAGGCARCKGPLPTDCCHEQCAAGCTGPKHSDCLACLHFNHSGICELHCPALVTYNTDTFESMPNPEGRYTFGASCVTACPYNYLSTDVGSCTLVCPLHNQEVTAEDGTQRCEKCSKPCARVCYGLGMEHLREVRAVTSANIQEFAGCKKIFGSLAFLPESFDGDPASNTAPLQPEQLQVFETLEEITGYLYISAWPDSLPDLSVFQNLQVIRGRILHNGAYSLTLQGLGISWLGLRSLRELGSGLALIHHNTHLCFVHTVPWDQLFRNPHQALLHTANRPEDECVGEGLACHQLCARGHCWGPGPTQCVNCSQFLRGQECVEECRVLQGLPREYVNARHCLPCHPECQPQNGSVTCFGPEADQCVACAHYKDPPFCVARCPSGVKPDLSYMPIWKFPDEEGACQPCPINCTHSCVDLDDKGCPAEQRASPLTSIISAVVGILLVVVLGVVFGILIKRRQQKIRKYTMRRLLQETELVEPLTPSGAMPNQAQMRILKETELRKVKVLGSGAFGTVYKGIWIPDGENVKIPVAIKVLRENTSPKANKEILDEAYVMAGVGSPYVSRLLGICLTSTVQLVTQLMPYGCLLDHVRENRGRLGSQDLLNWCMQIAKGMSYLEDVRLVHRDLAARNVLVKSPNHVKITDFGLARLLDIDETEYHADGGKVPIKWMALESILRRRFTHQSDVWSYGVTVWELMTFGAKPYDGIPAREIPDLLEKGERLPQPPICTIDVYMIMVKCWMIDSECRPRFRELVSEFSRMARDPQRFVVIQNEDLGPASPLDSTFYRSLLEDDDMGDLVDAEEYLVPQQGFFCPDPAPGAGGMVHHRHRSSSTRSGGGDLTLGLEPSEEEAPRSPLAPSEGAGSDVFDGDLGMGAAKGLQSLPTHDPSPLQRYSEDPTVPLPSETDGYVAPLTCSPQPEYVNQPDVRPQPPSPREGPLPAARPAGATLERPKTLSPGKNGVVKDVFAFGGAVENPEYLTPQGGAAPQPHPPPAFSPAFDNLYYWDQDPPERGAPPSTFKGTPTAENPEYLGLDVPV

Row | Compound | inhibition at 10 µM [1] | inhibition at 10 µM [2] | inhibition at 10 µM [3] | inhibition at 10 µM [4] | inhibition at 10 µM [5] | IC50 [6] | melting point | inhibition at 10 µM [7] | inhibition at 10 µM [8] | IC50 [9] | inhibition at 10 µM [10] | IC50 [11] | inhibition at 10 µM [12] | IC50 [13] | IC50 [14] | inhibition at 10 µM [16] | IC50 [17] | IC50 [15]
1 | O=C(Nc1cccc(C(F)(F)F)c1)c1cccc(C(=O)N2CCN(C(=O)c3cccc(F)c3)CC2)c1 [Compound 9, 3-(4-(3-Fluorobenzoyl)piperazine-1-carbonyl)-N-(3-(trifluoromethyl)phenyl)benzamide] | 20% | 0% | 90% | 37% | 33% | 26.3 ± 3.71 µM | 97 to 101 °C | 24% | 64% | 21 ± 0.59 µM | 0% | 33.3 ± 3.45 µM | 0% | > 50 µM | > 50 µM | 0% | 21.9 ± 1.59 µM | 26.3 ± 1.88 µM
2 | Cc1cn(-c2cc(NC(=O)c3cccc(C(=O)Nc4cc(-n5cnc(C)c5)cc(C(F)(F)F)c4)c3)cc(C(F)(F)F)c2)cn1 [Compound 10, N1,N3-bis(3-(4-methyl-1H-imidazol-1-yl)-5-(trifluoromethyl)phenyl)isophthalamide] | 17% | 0% | 1% | 0% | 33% | 38.5 ± 1.95 µM | 304 to 306 °C | 0% | 19% | 26 ± 2.38 µM | 0% | 23.2 ± 1.81 µM | 0% | > 50 µM | 13.2 ± 1.3 µM | 0% | 35.8 ± 3.19 µM | 13 ± 0.3 µM
3 | COc1ccc(C(=O)N2CCN(C(=O)c3ccc(C(=O)Nc4cccc(C(F)(F)F)c4)cc3)CC2)cc1 [Compound 19, 4-(4-(4-Methoxybenzoyl)piperazine-1-carbonyl)-N-(3-(trifluoromethyl)phenyl)benzamide] | 19% | – | 4% | 2% | 16% | > 50 µM | 202 to 205 °C | 20% | 39% | > 50 µM | 17% | > 50 µM | – | > 50 µM | > 50 µM | 0% | > 50 µM | > 50 µM
4 | CCN(CC)CCNC(=O)c1c(C)[nH]c(/C=C2\C(=O)Nc3ccc(F)cc32)c1C [Sunit., sunitinib, reference compound] | – | 90% | – | – | – | – | – | – | – | – | – | – | 68% | – | – | – | – | –

More lines, in order of falling IC50 [6], values ahead:

Row | inhibition at 10 µM [1] | inhibition at 10 µM [2] | inhibition at 10 µM [3] | inhibition at 10 µM [4] | inhibition at 10 µM [5] | IC50 [6] | melting point | inhibition at 10 µM [7] | inhibition at 10 µM [8] | IC50 [9] | inhibition at 10 µM [10] | IC50 [11] | inhibition at 10 µM [12] | IC50 [13] | IC50 [14] | inhibition at 10 µM [16] | IC50 [17] | Compound | IC50 [15]
5 | 0% | 0% | 14% | 0% | 34% | 24.7 ± 5.95 µM | 145 to 147 °C | 0% | 0% | 18.3 ± 1.15 µM | 6% | 35.49 ± 0.34 µM | 0% | > 50 µM | > 50 µM | 0% | 18.2 ± 1.02 µM | O=C(Nc1cccc(C(F)(F)F)c1)c1cccc(C(=O)N2CCN(C(=O)c3ccccc3F)CC2)c1 [Compound 8, 3-(4-(2-Fluorobenzoyl)piperazine-1-carbonyl)-N-(3-(trifluoromethyl)phenyl)benzamide] | 24.9 ± 1.17 µM
6 | 0% | 3% | 2% | 3% | 0% | 15.5 ± 1.16 µM | 269 to 270 °C | 0% | 49% | 17 ± 0.2 µM | 0% | > 50 µM | 0% | > 50 µM | > 50 µM | 0% | 26.4 ± 3.35 µM | Cc1cn(-c2cc(NC(=O)c3ccc(C(=O)Nc4cc([N+](=O)[O-])ccc4C)cc3)cc(C(F)(F)F)c2)cn1 [Compound 24, N1-(3-(4-methyl-1H-imidazol-1-yl)-5-(trifluoromethyl)phenyl)-N4-(2-methyl-5-nitrophenyl)terephthalamide] | 36.5 ± 0.86 µM
